In patent US20240336630A1, “MAP4K1 INHIBITORS” (Blueprint Medicines Corporation, priority 2021, published 2024):

Biological target: T1, MAP4K1 (HPK1) (Homo sapiens, UniProt Q92918)
T1 construct: purchased Invitrogen
Assay: Inhibition of MAP4K1 biochemical enzymatic activity (EZReader 2 electrophoretic mobility shift)
Settings: HPK1 (Invitrogen), S6K2tide 1.5 μM, 120 min; ATP 26 μM or 1000 μM, not stated which for Table 3
Text: MAP4K1 (HPK1) and relevant off-target enzymatic activity was monitored using the Perkin Elmer electrophoretic mobility shift technology platform—the EZReader 2. […] Within the linear, steady-state phase of the kinase enzymatic reaction, the mixed pool of phosphorylated (product) and non-phosphorylated (substrate) peptides was passed through the microfluidic system of the PerkinElmer EZ Reader 2, under an applied electric potential difference. The presence of the phosphate group on the product peptide provided a difference in mass and charge between that of the substrate peptide, resulting in a separation of the substrate and product pools in the sample (Perrin et al. 2010). As the product and substrate peptide mixture passes the lasers within the instrument, these pools are detected (λex=488 nm, λem=568 nm) and resolved as separate peaks. The ratio between these peaks reflects the activity of the compound at that concentration, in that well, under those conditions.
Inhibitors were dissolved in 100% DMSO at a stock concentration of 10 mM. A 100×, 10-point, 4-fold serial dilution of each inhibitor was created in 100% DMSO either manually or on a Hamilton STAR liquid handler, starting at a relevant concentration, usually 1 mM. A volume of 0.130 μL of each concentration was transferred to the relevant wells of a 384-well plate (Greiner 781 201) in duplicate using a TTPLabtech Mosquito nano-litre dispenser. Using a Multidrop Combi, the remaining constituents of the kinase reaction were added to the 130 nL of dosed compound as follows (see table below for final reaction details):
Enzyme activity assays at the ^APPKM for ATP or 1 mM ATP: In each well of a 384-well plate, 0.1-15 nM of untreated enzyme was incubated in a total of 13 μL of buffer (100 mM HEPES pH 7.5, 0.015% Brij 35, 10 mM MgCl2, 1 mM DTT) with 1.5 μM fluorescent peptide and 20-1000 μM ATP, at 25° C., for 60-180 minutes in the presence or absence of a dosed concentration series of compound (1% DMSO final concentration). The kinase reactions were stopped by the addition of 70 μl of Stop buffer (100 mM HEPES pH 7.5, 0.015% Brij 35, 35 mM EDTA and 0.2% of Coating Reagent 3 (Caliper Lifesciences)). The plates were read on a Caliper EZReader 2 as described above.

T1 sequence (Q92918 whole entry): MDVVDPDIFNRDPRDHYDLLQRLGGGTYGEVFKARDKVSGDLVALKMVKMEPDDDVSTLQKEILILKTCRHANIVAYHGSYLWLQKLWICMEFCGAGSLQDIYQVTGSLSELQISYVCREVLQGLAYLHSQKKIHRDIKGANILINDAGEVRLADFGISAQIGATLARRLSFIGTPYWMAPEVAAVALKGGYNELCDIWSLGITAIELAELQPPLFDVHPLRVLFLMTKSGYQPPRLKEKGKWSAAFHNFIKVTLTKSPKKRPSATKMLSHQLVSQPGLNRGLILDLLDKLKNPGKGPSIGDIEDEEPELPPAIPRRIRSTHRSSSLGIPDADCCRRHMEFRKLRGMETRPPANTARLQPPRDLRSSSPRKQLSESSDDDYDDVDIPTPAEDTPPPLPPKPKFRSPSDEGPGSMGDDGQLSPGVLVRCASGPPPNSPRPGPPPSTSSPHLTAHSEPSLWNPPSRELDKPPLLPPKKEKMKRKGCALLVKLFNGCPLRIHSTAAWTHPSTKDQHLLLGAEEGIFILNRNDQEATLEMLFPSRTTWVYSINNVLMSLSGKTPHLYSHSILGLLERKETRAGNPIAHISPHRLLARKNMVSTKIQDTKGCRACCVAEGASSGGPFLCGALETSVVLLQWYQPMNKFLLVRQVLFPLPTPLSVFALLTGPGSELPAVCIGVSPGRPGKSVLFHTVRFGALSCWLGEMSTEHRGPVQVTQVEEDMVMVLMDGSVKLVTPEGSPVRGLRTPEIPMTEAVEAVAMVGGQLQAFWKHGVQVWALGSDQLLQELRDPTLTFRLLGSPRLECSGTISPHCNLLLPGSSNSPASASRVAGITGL

SMILES | IC50 [nM]
CC[C@@](C)(O)c1cnc(NC2CC2)c2cnc(Nc3ccc4c(n3)[C@@H](C)C(C)(C)OC4=O)cc12 (single isomer, unassigned) [Compound 28] | 3.03
CC[C@@](C)(O)c1cnc(NC2CC2)c2cnc(Nc3ccc4c(n3)[C@@H](C)C(C)(C)OC4=O)cc12 (single isomer, unassigned) [Compound 29] | 1.43
CC[C@@](C)(O)c1cnc(OC2CC2)c2cnc(Nc3ccc4c(n3)[C@@H](C)C(C)(C)OC4=O)cc12 (single isomer, unassigned) [Compound 30] | 2.38
CCOc1ncc([C@@](C)(O)C2CC2)c2cc(Nc3ccc4c(n3)[C@@H](C)C(C)(C)OC4=O)ncc12 (single isomer, unassigned) [Compound 32] | 15.5
CCOc1ncc([C@@](C)(O)C2CC2)c2cc(Nc3ccc4c(n3)[C@@H](C)C(C)(C)OC4=O)ncc12 (single isomer, unassigned) [Compound 33] | 0.56
COC[C@@](C)(O)c1cnc(OC2CC2)c2cnc(Nc3ccc4c(n3)[C@@H](C)[C@H](C)OC4=O)cc12 (single isomer, unassigned) [Compound 35] | 67.3
COC[C@@](C)(O)c1cnc(OC2CC2)c2cnc(Nc3ccc4c(n3)[C@@H](C)[C@H](C)OC4=O)cc12 (single isomer, unassigned) [Compound 36] | 3.86
CC[C@](C)(O)c1cnc(OC2CC2)c2cnc(Nc3ccc4c(n3)C3(CC3)C(C)(C)OC4=O)cc12 (single isomer, unassigned) [Compound 41] | 6.55
C[C@@H]1c2nc(Nc3cc4c([C@@](C)(O)C5CCC5)cnc(OC5CC5)c4cn3)ccc2C(=O)OC1(C)C (single isomer, unassigned) [Compound 43] | 6.72
C[C@@H]1c2nc(Nc3cc4c([C@@](C)(O)C5CCC5)cnc(OC5CC5)c4cn3)ccc2C(=O)OC1(C)C (single isomer, unassigned) [Compound 44] | 1.53
C[C@@H]1c2nc(Nc3cc4c([C@@](C)(O)C(F)(F)F)cnc(OC5CC5)c4cn3)ccc2C(=O)OC1(C)C (single isomer, unassigned) [Compound 50] | 4.51
C[C@@H]1c2nc(Nc3cc4c([C@@](C)(O)C(F)(F)F)cnc(OC5CC5)c4cn3)ccc2C(=O)OC1(C)C (single isomer, unassigned) [Compound 51] | 12.3
CC[C@@](C)(O)c1cnc(OCC(F)(F)F)c2cnc(Nc3ccc4c(n3)[C@@H](C)C(C)(C)OC4=O)cc12 (single isomer, unassigned) [Compound 52] | 23.2
CC[C@@](C)(O)c1cnc(OCC(F)(F)F)c2cnc(Nc3ccc4c(n3)[C@@H](C)C(C)(C)OC4=O)cc12 (single isomer, unassigned) [Compound 53] | 3.75
C[C@@H]1c2nc(Nc3cc4c([C@@](C)(O)C5CC5)cnc(OCC(F)(F)F)c4cn3)ccc2C(=O)OC1(C)C (single isomer, unassigned) [Compound 54] | 16.9
C[C@@H]1c2nc(Nc3cc4c([C@@](C)(O)C5CC5)cnc(OCC(F)(F)F)c4cn3)ccc2C(=O)OC1(C)C (single isomer, unassigned) [Compound 55] | 15.9
CC[C@H](O)c1cnc(OC2CN(S(C)(=O)=O)C2)c2cnc(Nc3ccc4c(n3)[C@@H](C)[C@H](C)OC4=O)cc12 (single isomer, unassigned) [Compound 58] | 2.52
CC[C@H](O)c1cnc(OC2CN(S(C)(=O)=O)C2)c2cnc(Nc3ccc4c(n3)[C@@H](C)[C@H](C)OC4=O)cc12 (single isomer, unassigned) [Compound 59] | 12.9
CC[C@@](C)(O)c1cnc(O[C@H]2C[C@@H](S(C)(=O)=O)C2)c2cnc(Nc3ccc4c(n3)[C@@H](C)[C@H](C)OC4=O)cc12 (single isomer, unassigned) [Compound 62] | 1.66
CC[C@@H](O)c1cnc(OC2CN(S(C)(=O)=O)C2)c2cnc(Nc3ccc4c(n3)[C@@H](C)C(C)(C)OC4=O)cc12 (single isomer, unassigned) [Compound 63] | 2.94
CC[C@@H](O)c1cnc(OC2CN(S(C)(=O)=O)C2)c2cnc(Nc3ccc4c(n3)[C@@H](C)C(C)(C)OC4=O)cc12 (single isomer, unassigned) [Compound 64] | 0.67
CC[C@@](C)(O)c1cnc(O[C@H]2C[C@@H](S(C)(=O)=O)C2)c2cnc(Nc3ccc4c(n3)[C@@H](C)C(C)(C)OC4=O)cc12 (single isomer, unassigned) [Compound 65] | 0.39

SMILES | IC50 [nM]
CC[C@@](C)(O)c1cnc(O[C@H]2C[C@@H](S(C)(=O)=O)C2)c2cnc(Nc3ccc4c(n3)[C@@H](C)C(C)(C)OC4=O)cc12 (single isomer, unassigned) [Compound 66] | 1.74
CC[C@@](C)(O)c1cnc(O[C@H](C)C[C@@H](C)S(C)(=O)=O)c2cnc(Nc3ccc4c(n3)[C@@H](C)[C@H](C)OC4=O)cc12 (single isomer, unassigned) [Compound 67] | 0.66
CC[C@@](C)(O)c1cnc(O[C@H](C)C[C@@H](C)S(C)(=O)=O)c2cnc(Nc3ccc4c(n3)[C@@H](C)[C@H](C)OC4=O)cc12 (single isomer, unassigned) [Compound 68] | 0.41
CC[C@@](C)(O)c1cnc(O[C@H](C)C[C@@H](C)S(C)(=O)=O)c2cnc(Nc3ccc4c(n3)[C@@H](C)C(C)(C)OC4=O)cc12 (single isomer, unassigned) [Compound 69] | 0.89
CC[C@@](C)(O)c1cnc(O[C@H](C)C[C@@H](C)S(C)(=O)=O)c2cnc(Nc3ccc4c(n3)[C@@H](C)C(C)(C)OC4=O)cc12 (single isomer, unassigned) [Compound 70] | 0.49
CNc1ncc(C(C)(C)O)c2cc(Nc3ccnc(C(C)(C)C)n3)ncc12 [Compound 3] | 23.1
COc1ncc(C(C)(C)O)c2cc(Nc3ccnc(C(C)(C)C)n3)ncc12 [Compound 4] | 2.34
COc1ccc(C(C)(C)O)c2cc(Nc3ccnc(C(C)(C)F)n3)ncc12 [Compound 5] | 18.4
COc1ncc(C(C)(C)O)c2cc(Nc3ccnc(C(C)(C)F)n3)ncc12 [Compound 6] | 9.23
COc1ncc(C(C)(C)O)c2cc(Nc3cnc(C#N)c(C(C)C)n3)ncc12 [Compound 7] | 17.5
COc1ncc(C(C)(C)O)c2cc(Nc3ccc4c(n3)CCOC4=O)ncc12 [Compound 8] | 4.73
COc1ncc(C(C)(C)O)c2cc(Nc3ccnc(N4CC[C@@H]4C)n3)ncc12 [Compound 9] | 1.63
COc1ncc(C(C)(C)O)c2cc(Nc3ccnc(N4CCC[C@@H]4C)n3)ncc12 [Compound 10] | 1.19
COc1ncc(C(C)(C)O)c2cc(Nc3cnc(C#N)c(N4CCC[C@@H]4C)n3)ncc12 [Compound 13] | 6.36
CC1(C)CCc2nc(Nc3cc4c(C(C)(C)O)cnc(OC5CC5)c4cn3)ccc2C(=O)O1 [Compound 22] | 23.6
C[C@@H]1OC(=O)c2ccc(Nc3cc4c(C(C)(C)O)cnc(OCC5(F)CC5)c4cn3)nc2[C@H]1C [Compound 37] | 2.01
CC1(C)Cc2nc(Nc3cc4c(C5(O)CCOCC5)cnc(OC5CC5)c4cn3)ccc2C(=O)O1 [Compound 42] | 3.38
CC(=O)N1CC(Oc2ncc(C(C)(C)O)c3cc(Nc4ccc5c(n4)[C@@H](C)[C@H](C)OC5=O)ncc23)C1 [Compound 45] | 1.91
CC1(C)Cc2nc(Nc3cc4c(C(C)(O)c5ccccc5)cnc(OC5CC5)c4cn3)ccc2C(=O)O1 (centres unmarked) [Compound 46] | 31.9
C[C@@H]1c2nc(Nc3cc4c(C(C)(O)C5CC5)cnc(OCC(F)F)c4cn3)ccc2C(=O)OC1(C)C (some centres unmarked) [Compound 47] | 1.57
C[C@@H]1OC(=O)c2ccc(Nc3cc4c(C(C)(C)O)cnc(O[C@H]5C[C@@H](S(C)(=O)=O)C5)c4cn3)nc2[C@H]1C [Compound 56] | 0.45
C[C@@H]1OC(=O)c2ccc(Nc3cc4c(C(C)(C)O)cnc(OC5CN(S(C)(=O)=O)C5)c4cn3)nc2[C@H]1C [Compound 57, (7S,8R)-2-((5-(2-Hydroxypropan-2-yl)-8-((1-(methylsulfonyl)azetidin-3-yl)oxy)-2,7-naphthyridin-3-yl)amino)-7,8-dimethyl-7,8-dihydro-5H-pyrano[4,3-b]pyridin-5-one] | 0.2
